Legend:
Format in all cases: cell-based, mouse
[1] = system: cerebellar granule cells from P6 mice; experiment: parkin overexpression in kainate-treated cerebellar granule cells, cyclin E by Western blot / immunofluorescence / RT-PCR; conditions: kainate 500 μM for 24 h
Description: Cerebellar granule cells from post-natal day 6 (P6) mice were transfected in suspension with a bicistronic expression plasmid for wild-type parkin (along with GFP) or with vector (GFP alone), cultured at a density of 75,000 cells/cm^2 for 72 h, and then treated with or without 500 μM kainate for 24 h. (A) Cells were extracted directly with loading buffer, and lysates were analyzed by Western blotting, as indicated. (B-M) Granule cell cultures were fixed, stained with a specific antibody against cyclin E, and then visualized by fluorescence microscopy for cyclin E (red) and GFP (green). […]
Cerebellar granule neurons from P6 mice were purified and transfected essentially as described (Scheiffele et al., Neuroligin expressed in nonneuronal cells triggers presynaptic development in contacting axons. Cell, 101:657-69, 2000). […] Cells were treated for 24 h with or without kainate (250 or 500 μM as indicated; Sigma) or MPP^+ (1 or 10 μM as indicated; Sigma), stained for 20 min with 0.5 μg/ml Hoechst 33342 (Sigma), and visualized by fluorescence microscopy. For granule cell assays, at least 100 cells in two 20× fields were scored in duplicate for GFP and/or Hoechst signal. […] Cells were washed, incubated for 1 h at room temperature with appropriately-labeled secondary antibodies, and visualized by fluorescence microscopy. […]

[2] = system: E13.5 primary culture midbrain dopamine neurons; experiment: parkin siRNA knockdown in primary midbrain dopamine neuron cultures with kainate or MPP+, immunofluorescence and Hoechst
Description: Dissociated midbrain cultures from El 3.5 mice were prepared as described (see Examples), transfected with 25 nM parkin or control (SERT) siRNA, and treated for 24 h with 250 μM kainate (A-X) or 1 μM MPP^+ (U—X). Cells were treated with Hoechst dye, fixed, and stained with rabbit polyclonal antibodies against either mouse parkin or cyclin E (green) and a rat monoclonal antibody against DAT (red). Immunostaining and apoptotic nuclei were visualized by fluorescence microscopy. Arrows point to examples of DAT-positive, cyclin-E-positive neurons (S) and DAT-positive neurons with apoptotic (Hoechst-positive) nuclei (I, J, and T). Total DAT-specific immunoreactivity (pixels), across 9 fields of view at 20×, was quantified in triplicate using Image software (Scion). Cytoplasmic parkin and cyclin E immunoreactivity (mean pixel density), in DAT-positive neurons, were similarly quantified. Data are shown as the mean±SEM. Statistical significance was assessed using one-way ANOVA with Tukey-Kramer post-hoc tests between each group. *=p<0.01; scale bar=150 μm
FIG. 10 further illustrates parkin/cyclin E interaction. […] Total RNA was extracted from granule cell cultures transfected with parkin or vector alone (see FIG. 5), and from frontal cortex tissue from parkin-deficient ARPD (or age-matched control; see FIG. 4). Cyclin E and β-actin mRNA levels were determined by quantitative RT-PCR, as described (Troy et al., Death in the balance: alternative participation of the caspase-2 and -9 pathways in neuronal death induced by nerve growth factor deprivation. J. Neurosci., 21:5007-16, 2001). (B-D) Both cyclin E immunoreactivity (p<0.05) and apoptosis (p<0.05) are increased in DAT-negative neurons of primary midbrain cultures treated with parkin siRNA (and kainate) relative to control siRNA (and kainate). However, the increased cyclin E immunoreactivity and apoptosis are both less marked than in DAT-positive neurons (p<0.05 for both measures). DAT-negative neurons in midbrain cultures were analyzed as in FIG. 7; DAT-positive neuron data is from FIG. 7. Cytoplasmic parkin and cyclin E immunoreactivity (mean pixel density) in DAT-negative neurons were quantified in triplicate, across 9 fields of view at 20×. Data are shown as the mean±SEM. Statistical significance was assessed using one-way ANOVA with Tukey-Kramer post-hoc tests between each group. *=p<0.01; **=p<0.05; scale bar=150 μm (E-J) Human parkin lentiviral vectors efficiently infect cultured murine midbrain dopamine neurons. E13.5 murine midbrain cultures were infected with lentiviruses encoding human parkin or control (GFP), as described in FIG. 8.
Cerebellar granule neurons from P6 mice were purified and transfected essentially as described (Scheiffele et al., Neuroligin expressed in nonneuronal cells triggers presynaptic development in contacting axons. Cell, 101:657-69, 2000). Dissociated cortical neurons from E16.5 mice were prepared and cultured as described (Scheiffele et al., Neuroligin expressed in nonneuronal cells triggers presynaptic development in contacting axons. Cell, 10 1:657-69, 2000). Primary midbrain cultures were prepared from E13.5 mouse embryos, as described (Hynes et al., Induction of midbrain dopaminergic neurons by Sonic hedgehog. Neuron, 15:35-44, 1995). Cells were treated for 24 h with or without kainate (250 or 500 μM as indicated; Sigma) or MPP^+ (1 or 10 μM as indicated; Sigma), stained for 20 min with 0.5 μg/ml Hoechst 33342 (Sigma), and visualized by fluorescence microscopy. For granule cell assays, at least 100 cells in two 20× fields were scored in duplicate for GFP and/or Hoechst signal. For immunohistochemistry, cell cultures were washed twice with PBS, and fixed for 20 min with 4% (w/v) paraformaldehyde. Cells were blocked for 1 h, at room temperature, with 3% (v/v) goat serum in PBS, and then incubated overnight, at 4° C., with specific antibodies, as indicated. […]

[3] = system: dissociated cortical neurons from E16.5 mice; experiment: parkin siRNA knockdown in kainate-treated primary cortical cultures, Western blot; conditions: 25 nM siRNA, then 500 μM kainate 24 h
Description: (A) Insect cells were co-infected with baculoviruses expressing Flag-hSel-10 (110 kDa) or Flag-β-TrCP, GST-parkin, HA-CDK2, and either His6-cyclin E or His6-cyclin A1 (50 kDa). Cyclin-E- or cyclin-A1-associated complexes were isolated from cell lysates by nickel-agarose pull-downs, and analyzed by Western blotting, as indicated. (B) Flag-parkin-associated complexes (immunoprecipitated from HeLa cells transfected with Flag-tagged wild-type or T240R mutant parkin) were incubated with recombinant His6-cyclin E, HA-CDK2, E1, UbcH7, and ubiquitin, in the presence of an ATP-regenerating system. Recombinant His6-cyclin E generated in insect cells appears as a 51 -kDa band (arrow) and a minor contaminating species at 95-kDa. The asterisk indicates the position of an immunoglobulin heavy chain. (C) Parkin deficiency leads to cyclin E accumulation. Dissociated cortical neurons from E16.5 mice were cultured as described (see Examples), transfected with 25 nM parkin siRNA or control (DAT) siRNA, and then treated for 24 h with 500 μM kainate. […]
Cerebellar granule neurons from P6 mice were purified and transfected essentially as described (Scheiffele et al., Neuroligin expressed in nonneuronal cells triggers presynaptic development in contacting axons. Cell, 101:657-69, 2000). […] Cells were treated for 24 h with or without kainate (250 or 500 μM as indicated; Sigma) or MPP^+ (1 or 10 μM as indicated; Sigma), stained for 20 min with 0.5 μg/ml Hoechst 33342 (Sigma), and visualized by fluorescence microscopy. For granule cell assays, at least 100 cells in two 20× fields were scored in duplicate for GFP and/or Hoechst signal. […] Cells were washed, incubated for 1 h at room temperature with appropriately-labeled secondary antibodies, and visualized by fluorescence microscopy. For midbrain culture experiments, DAT-specific immunoreactivity (pixels), and cytoplasmic parkin and cyclin E immunoreactivity (mean pixel density), were quantified in triplicate, across nine fields of view, at 20× using Image software (Scion). […]

C=C(C)[C@H]1CN[C@H](C(=O)O)[C@H]1CC(=O)O [kainate, kainic acid]
cyclin E accumulation in granule cell cultures after toxin [1]: led to the accumulation of cyclin E

5′ UUCCAAACCGG AUGAGUGGdTdT 3′ [parkin siRNA]
cyclin E accumulation in DAT-positive neurons ([2]; 25 nM siRNA, 250 μM kainate 24 h, vs control (SERT) siRNA): increased accumulation of cyclin E
apoptosis of DAT-positive neurons (Hoechst) ([2]; 25 nM siRNA, 250 μM kainate 24 h, vs control siRNA): increased apoptosis
DAT immunoreactivity in cell bodies and processes ([2]; 25 nM siRNA, in the presence of kainate, vs control siRNA): decreased DAT immunoreactivity
kainate sensitivity of DAT-negative neurons (cyclin E induction and apoptosis) ([2]; DAT-negative (primarily GABAergic) neurons vs DAT-positive population, p<0.05): did sensitize DAT-negative neurons to kainate toxicity, but to a significantly lesser extent
dopamine neuron sensitivity to MPP+ ([2]; MPP+ 10 μM): failed to alter dopamine neuron sensitivity
cyclin E or DAT immunoreactivity, siRNA alone ([2]; in the absence of kainate): failed to alter cyclin E or DAT immunoreactivity
cleaved-PARP, marker of apoptosis (Western blot) [3]: accumulation of cleaved poly (ADP-ribose) polymerase
cyclin E accumulation (Western blot) ([3]; vs control (DAT) siRNA): increased accumulation of cyclin E
parkin protein expression (Western blot) ([3]; vs control (DAT) siRNA): significantly reduced parkin expression

C[n+]1ccc(-c2ccccc2)cc1 [MPP^+, 1-Methyl-4-phenylpyridinium, reference compound]
DAT immunoreactivity after toxin ([2]; MPP+ 10 μM, control siRNA-treated cultures): led to a reduction in DAT immunoreactivity comparable to the kainate treatment

Source: patent US20040247586A1, “Parkin-associated complex for protecting post-mitotic neurons from excitotoxicity and uses thereof” (priority 2003, published 2004)
